Experiments:
[1] = test system: T-Rex 293 cell line SC3 cells having increased expression of androgen receptor protein due to exposure to doxycycline; experiment: Cellular growth inhibition, T-Rex 293 SC3 cells with doxycycline (increased androgen receptor expression), CellTiter-Glo; assay type: cell-based; details: T-Rex 293 SC3 cells with 10 ng/mL doxycycline (increased androgen receptor expression), 72 hours, CellTiter-Glo 2.0
Summary of the method: (§1)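 Growth inhibition is measured in an inducible AR-expressing T-Rex 293 clone, SC3, cultured with or without 10 ng/mL doxycycline in hormone-depleted medium. Test compounds are applied for 72 hours. GI50 values derive from CellTiter-Glo 2.0 signal fitted by four-parameter regression.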

[2] = test system: T-Rex 293 cell line SC3 cells lacking increased expression of androgen receptor protein; experiment: Cellular growth inhibition, T-Rex 293 SC3 cells without doxycycline (no increased androgen receptor expression), CellTiter-Glo; assay type: cell-based; details: T-Rex 293 SC3 cells not exposed to doxycycline (no increased androgen receptor expression), 72 hours
Summary of the method: as §1

[3] = test system: VCaP cells; experiment: Cellular growth inhibition assay for VCaP cells, CellTiter-Glo; assay type: cell-based, human; details: 72 hours
Summary of the method: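 GI50 values come from four-parameter curve fits of luminescence data normalized to a zero baseline. Compound, in medium with 0.5% DMSO, was added one day after plating and left for 72 h before CellTiter-Glo 2.0 addition.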

[4] = test system: T47D cells; experiment: Cellular Growth Inhibition Assay for T47D Cells (CellTiter-Glo); assay type: cell-based, human; details: 72 hours
Summary of the method: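 GI50 values derive from four-parameter regression of CellTiter-Glo 2.0 luminescence, using zero luminescence as baseline. Human breast cancer T47D cells (3000/well; DMEM, 10% FBS, 0.2 units/mL insulin) were exposed for 72 h to compound dilutions at 0.5% DMSO, with dosing starting 24 h after seeding.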

**Q.** For `CCS(=O)(=O)Cc1ccc(Oc2cccc(CCCCC3CCN(c4ncc(C(=O)N[C@H]5C(C)(C)[C@H](Oc6ccc(C#N)c(Cl)c6)C5(C)C)cn4)CC3)c2)c(-c2cn(C)c(=O)c3[nH]ccc23)c1` [Compound I-263], which GI50 [1] is on record?
**A.** < 0.5 µM

**Q.** What about the GI50 [2] of the same molecule?
**A.** > 3 µM

**Q.** And the GI50 ([3]; Homo sapiens)?
**A.** < 0.5 µM

**Q.** And the GI50 ([4]; Homo sapiens)?
**A.** < 0.5 µM

**Q.** What does the source list for `Cn1cc(-c2cc(C(C)(C)O)ccc2Oc2ccc(N3CC4(C3)CN(c3ncc(C(=O)N[C@H]5C(C)(C)[C@H](Oc6ccc(C#N)c(Cl)c6)C5(C)C)cn3)C4)cc2)c2cc[nH]c2c1=O` [Compound I-330]?
**A.** GI50 [1]: < 0.5 µM; GI50 [2]: < 0.5 µM; GI50 [3]: < 0.5 µM; GI50 [4]: < 0.5 µM

**Q.** Which GI50 [1] does the source give for `Cn1cc(-c2ccccc2Oc2cccc(OCCC3CCN(c4ncc(C(=O)N[C@H]5C(C)(C)[C@H](Oc6ccc(C#N)c(Cl)c6)C5(C)C)cn4)CC3)c2F)c2cc[nH]c2c1=O` [Compound I-117] here?
**A.** < 0.5 µM

**Q.** And the GI50 [2]?
**A.** > 3 µM

**Q.** What about the GI50 [3] of the same molecule?
**A.** < 0.5 µM

**Q.** What about the GI50 [4] of the same molecule?
**A.** 0.5 to 1.5 µM

**Q.** Which GI50 [1] does the source give for `CCS(=O)(=O)c1ccc(OCC(CCOC2CCN(c3ncc(C(=O)N[C@H]4C(C)(C)[C@H](Oc5ccc(C#N)c(Cl)c5)C4(C)C)cn3)CC2)C2CC2)c(-c2cn(C)c(=O)c3[nH]ccc23)c1` (stereo partly drawn) [Compound I-242] here?
**A.** < 0.5 µM

**Q.** And the GI50 [2]?
**A.** < 0.5 µM

**Q.** What about the GI50 [3] of the same molecule?
**A.** < 0.5 µM

**Q.** And the GI50 [4]?
**A.** < 0.5 µM

**Q.** For `CCS(=O)(=O)Nc1ccc(Oc2cccc(COC3CCN(c4ncc(C(=O)N[C@H]5C(C)(C)[C@H](Oc6ccc(C#N)c(Cl)c6)C5(C)C)cn4)CC3)c2F)c(-c2cn(C)c(=O)c3[nH]ccc23)c1` [Compound I-164], which GI50 [1] is on record?
**A.** < 0.5 µM

**Q.** What about the GI50 [2] of the same molecule?
**A.** > 3 µM

**Q.** And the GI50 ([3]; Homo sapiens)?
**A.** < 0.5 µM

**Q.** What about the GI50 ([4]; Homo sapiens) of the same molecule?
**A.** < 0.5 µM

**Q.** Which GI50 [1] does the source give for `CCS(=O)(=O)Nc1ccc(Oc2cccc(N3CC(N(C)C4CCN(c5ncc(C(=O)N[C@H]6C(C)(C)[C@H](Oc7ccc(C#N)c(Cl)c7)C6(C)C)cn5)CC4)C3)c2F)c(-c2cn(C)c(=O)c3[nH]ccc23)c1` [Compound I-178] here?
**A.** < 0.5 µM

**Q.** What about the GI50 [2] of the same molecule?
**A.** < 0.5 µM

**Q.** What about the GI50 [3] of the same molecule?
**A.** < 0.5 µM

**Q.** What about the GI50 [4] of the same molecule?
**A.** < 0.5 µM

**Q.** How did the GI50 [1] turn out when `Cn1cc(-c2cc(S(C)(=O)=O)ccc2Oc2cccc(N3CC(CC4CCN(c5ncc(C(=O)NC6C(C)(C)C(Oc7ccc(C#N)c(Cl)c7)C6(C)C)cn5)CC4)C3)c2F)c2cc[nH]c2c1=O` (stereo not drawn) [Compound I-189, N-[3-(3-chloro-4-cyano-phenoxy)-2,2,4,4-tetramethyl-cyclobutyl]-2-[4-[[1-[2-fluoro-3-[2-(6-methyl-7-oxo-1H-pyrrolo[2,3-c]pyridin-4-yl)-4-methylsulfonyl-phenoxy]phenyl]azetidin-3-yl]methyl]-1-piperidyl]pyrimidine-5-carboxamide] was run?
**A.** < 0.5 µM

**Q.** What about the GI50 [2] of the same molecule?
**A.** > 3 µM

**Q.** And the GI50 ([3]; Homo sapiens)?
**A.** > 3 µM

**Q.** What about the GI50 ([4]; Homo sapiens) of the same molecule?
**A.** < 0.5 µM

**Q.** What does the source list for `Cn1cc(-c2cc(C(C)(C)O)ccc2OCC(C)(C)CN2CC(OC3CCN(c4ncc(C(=O)NC5C(C)(C)C(Oc6ccc(C#N)c(Cl)c6)C5(C)C)cn4)CC3)C2)c2cc[nH]c2c1=O` (stereo not drawn) [Compound I-282, N-[3-(3-chloro-4-cyano-phenoxy)-2,2,4,4-tetramethyl-cyclobutyl]-2-[4-[1-[3-[4-(1-hydroxy-1-methyl-ethyl)-2-(6-methyl-7-oxo-1H-pyrrolo[2,3-c]pyridin-4-yl)phenoxy]-2,2-dimethyl-propyl]azetidin-3-yl]oxy-1-piperidyl]pyrimidine-5-carboxamide]?
**A.** GI50 [1]: < 0.5 µM; GI50 [2]: 0.5 to 1.5 µM; GI50 ([3]; Homo sapiens): < 0.5 µM; GI50 ([4]; Homo sapiens): 0.5 to 1.5 µM

**Q.** With `Cn1cc(-c2cc(C(C)(C)O)ccc2Oc2ccc(CC3CC(C4CCCN(c5ncc(C(=O)N[C@H]6C(C)(C)[C@H](Oc7ccc(C#N)c(Cl)c7)C6(C)C)cn5)C4)C3)cc2)c2cc[nH]c2c1=O` (single isomer, unassigned) [Compound I-349] as the molecule, how does the GI50 [1] read?
**A.** > 3 µM

**Q.** What about the GI50 [2] of the same molecule?
**A.** > 3 µM

**Q.** And the GI50 [3]?
**A.** < 0.5 µM

**Q.** What about the GI50 [4] of the same molecule?
**A.** < 0.5 µM

**Q.** What does the source list for `CCS(=O)(=O)Nc1ccc(Oc2cccc(OC3CCN(C4CCN(c5ncc(C(=O)N[C@H]6C(C)(C)[C@H](Oc7ccc(C#N)c(Cl)c7)C6(C)C)cn5)CC4)C3)c2)c(-c2cn(C)c(=O)c3[nH]ccc23)c1` (stereo partly drawn) [Compound I-43]?
**A.** GI50 [1]: < 0.5 µM; GI50 [2]: 1.5 to 3 µM; GI50 ([3]; Homo sapiens): < 0.5 µM; GI50 ([4]; Homo sapiens): < 0.5 µM

**Q.** With `Cn1cc(-c2cc(C(C)(C)O)ccc2OC(CCCCOC2CCN(c3ncc(C(=O)N[C@H]4C(C)(C)[C@H](Oc5ccc(C#N)c(Cl)c5)C4(C)C)cn3)CC2)C2CC2)c2cc[nH]c2c1=O` (stereo partly drawn) [Compound I-251] as the molecule, how does the GI50 [1] read?
**A.** < 0.5 µM

**Q.** What about the GI50 [2] of the same molecule?
**A.** 0.5 to 1.5 µM

**Q.** And the GI50 [3]?
**A.** 0.5 to 1.5 µM

**Q.** What about the GI50 [4] of the same molecule?
**A.** 0.5 to 1.5 µM

**Q.** How did the GI50 [1] turn out when `Cn1cc(-c2cc(C(C)(C)O)ccc2Oc2ccc(N3CC(CC4CCN(c5cnc(C(=O)N[C@H]6C(C)(C)[C@H](Oc7ccc(C#N)c(Cl)c7)C6(C)C)cn5)CC4)C3)cn2)c2cc[nH]c2c1=O` [Compound I-346] was run?
**A.** < 0.5 µM

**Q.** What about the GI50 [2] of the same molecule?
**A.** > 3 µM

**Q.** What about the GI50 ([3]; Homo sapiens) of the same molecule?
**A.** < 0.5 µM

**Q.** What about the GI50 ([4]; Homo sapiens) of the same molecule?
**A.** < 0.5 µM

Reference: US20250388605A1, “HETEROBIFUNCTIONAL COMPOUNDS AND METHODS OF TREATING DISEASE” (Halda Therapeutics OpCo, Inc., priority 2022, published 2025)
